Literature values as cited in US20120101005A1, “METHODS FOR PREDICTING THE TOXICITY OF A CHEMICAL” (GE HEALTHCARE UK LIMITED, priority 2009, published 2012).
Where two headings read alike, the source gives them in different places.

Experiments:
[1] = target: p140 trk tyrosine kinase NGF-receptor (Rattus norvegicus, UniProt P35739); conditions: read-out: IC50, p140 trk NGF-receptor autophosphorylation
[2] = target: EGF receptor (Homo sapiens, UniProt P00533)
[3] = tested on: rat PC12 cells; conditions: for NGF-induced neuronal differentiation of PC12 cells: monitored by generation of neurite processes
[4] = tested on: PDGF receptor
[5] = tested on: P19 EC cells
[6] = tested on: mouse P19 cell
[7] = tested on: common neurotrophin receptor p75NTR; conditions: compound interacts with NGF
[8] = tested on: p140 trk tyrosine kinase NGF-receptor; conditions: compound interacts with NGF
[9] = tested on: ES cells; conditions: co-treatment with retinoic acid
[10] = tested on: ES cells
[11] = tested on: human embryonic stem cells
[12] = tested on: JNKs
[13] = tested on: ERKs
[14] = tested on: 3T3-F442A, 3T3-L1, Ob1771 and embryonic stem cells
[15] = tested on: C3H10T1/2 mesenchymal stem cells; conditions: induced with 200 nM insulin, 1 μM BRL49653 and LGD1069; lipogenesis, oil red O-staining, AP2 and LPL expression
[16] = 1 μM on the first day of the differentiation process

EGF receptor, sequence (P00533 25-1210): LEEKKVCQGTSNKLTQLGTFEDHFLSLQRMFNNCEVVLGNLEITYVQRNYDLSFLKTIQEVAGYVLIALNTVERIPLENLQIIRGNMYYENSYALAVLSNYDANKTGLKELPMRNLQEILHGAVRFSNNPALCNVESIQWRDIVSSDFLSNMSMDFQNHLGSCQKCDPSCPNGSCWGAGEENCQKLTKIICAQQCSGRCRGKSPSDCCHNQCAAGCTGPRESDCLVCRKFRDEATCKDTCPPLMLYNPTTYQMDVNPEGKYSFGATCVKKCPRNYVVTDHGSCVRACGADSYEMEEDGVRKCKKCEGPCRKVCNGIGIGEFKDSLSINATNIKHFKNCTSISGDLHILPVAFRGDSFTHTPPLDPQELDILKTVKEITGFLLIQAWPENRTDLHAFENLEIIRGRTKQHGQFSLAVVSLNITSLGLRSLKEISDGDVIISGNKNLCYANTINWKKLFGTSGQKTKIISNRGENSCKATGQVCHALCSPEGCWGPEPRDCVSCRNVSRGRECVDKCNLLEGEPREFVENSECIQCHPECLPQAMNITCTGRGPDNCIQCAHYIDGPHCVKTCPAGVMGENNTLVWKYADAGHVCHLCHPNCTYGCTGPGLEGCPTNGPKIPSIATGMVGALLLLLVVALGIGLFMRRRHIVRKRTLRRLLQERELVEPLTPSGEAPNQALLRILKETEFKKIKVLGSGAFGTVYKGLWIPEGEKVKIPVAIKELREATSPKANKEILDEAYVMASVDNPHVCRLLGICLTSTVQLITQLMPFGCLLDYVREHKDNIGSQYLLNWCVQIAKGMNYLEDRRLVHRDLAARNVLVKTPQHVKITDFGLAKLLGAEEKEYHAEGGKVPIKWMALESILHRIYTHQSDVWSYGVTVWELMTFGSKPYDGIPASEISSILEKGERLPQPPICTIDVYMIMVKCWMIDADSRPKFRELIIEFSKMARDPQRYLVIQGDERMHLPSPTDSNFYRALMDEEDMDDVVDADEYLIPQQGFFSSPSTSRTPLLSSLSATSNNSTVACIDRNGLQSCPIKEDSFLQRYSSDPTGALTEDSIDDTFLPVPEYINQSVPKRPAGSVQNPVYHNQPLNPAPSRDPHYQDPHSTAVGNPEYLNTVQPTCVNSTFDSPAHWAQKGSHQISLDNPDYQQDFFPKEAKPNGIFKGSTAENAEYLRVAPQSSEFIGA
p140 trk tyrosine kinase NGF-receptor (Rattus norvegicus, UniProt P35739), sequence (P35739 33-799): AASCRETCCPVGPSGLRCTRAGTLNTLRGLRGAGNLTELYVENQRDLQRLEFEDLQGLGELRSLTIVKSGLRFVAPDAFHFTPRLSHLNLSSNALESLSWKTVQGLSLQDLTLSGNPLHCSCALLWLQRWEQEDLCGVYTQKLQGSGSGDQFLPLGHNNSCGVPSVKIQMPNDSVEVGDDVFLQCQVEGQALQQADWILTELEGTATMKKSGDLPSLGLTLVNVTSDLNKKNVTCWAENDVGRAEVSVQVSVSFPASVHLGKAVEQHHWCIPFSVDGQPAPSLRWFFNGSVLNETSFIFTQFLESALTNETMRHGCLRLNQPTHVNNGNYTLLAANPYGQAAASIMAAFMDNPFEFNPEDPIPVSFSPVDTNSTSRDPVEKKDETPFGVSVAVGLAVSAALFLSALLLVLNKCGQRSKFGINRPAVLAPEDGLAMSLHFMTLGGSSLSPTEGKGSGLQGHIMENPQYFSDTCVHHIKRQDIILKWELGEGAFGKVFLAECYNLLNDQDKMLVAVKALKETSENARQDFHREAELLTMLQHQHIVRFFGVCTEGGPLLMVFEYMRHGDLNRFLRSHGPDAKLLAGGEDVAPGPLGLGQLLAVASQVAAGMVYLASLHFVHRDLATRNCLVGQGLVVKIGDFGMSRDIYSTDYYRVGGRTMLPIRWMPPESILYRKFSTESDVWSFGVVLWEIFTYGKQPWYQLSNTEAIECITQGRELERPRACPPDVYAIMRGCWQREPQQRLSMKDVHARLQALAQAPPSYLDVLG

**Q.** With CC(C)(C)c1cc(/C=C(\C#N)C(N)=S)cc(C(C)(C)C)c1O [AG-879] as the compound, how does the IC50 [1] read?
**A.** Its IC50 is 10 µM.

**Q.** What about the “inhibition of EGF receptor phosphorylation” value [2] of the same compound?
**A.** Its value is “no inhibition”.

**Q.** And the “NGF-induced neurite outgrowth in PC12 cells” value [3]?
**A.** Its value is “inhibits NGF-induced neurite outgrowth”.

**Q.** And the “inhibition of PDGF receptor phosphorylation” value [4]?
**A.** Its value is “no inhibition”.

**Q.** Which “expression levels of the neuronal markers β-tubulin, NeuroD1 and mash1” value [5, 16] does the source give for Nc1ncnc2c1ncn2C(C=O)OC(C=O)CO (centres unmarked) [AdOx, Adenosine dialdehyde] here?
**A.** The value was “decreased”.

**Q.** And the “number of neurites observed” value [5, 16]?
**A.** The value was “decreased”.

**Q.** Which “death of P19-derived neurons” value [5] does the source give for CCCCCCCCCC(=O)N[C@H](CN1CCOCC1)[C@H](O)c1ccccc1 [D-PDMP, D-theo-1-phenyl-2-decanoylamino-3-morphlino-1-propanol] here?
**A.** Its value is “causing the death of P19-derived neurons”.

**Q.** And the “cell death of undifferentiated P19 EC cells” value ([5]; 50 μM)?
**A.** The value was “without any indication of cell death”.

**Q.** What about the “proliferation of the undifferentiated P19 EC cells” value ([5]; 50 μM, added 3 days prior to retinoic acid and maintained) of the same compound?
**A.** The value was “reduced”.

**Q.** What about the neurite elongation ([5]; 50 μM, neurites present but failed to develop correctly) of the same compound?
**A.** Its neurite elongation is “abolished neurite elongation”.

**Q.** And the neurite outgrowth ([5]; P19 EC in-vitro neuronal differentiation model)?
**A.** Its neurite outgrowth is “inhibited neurite outgrowth”.

**Q.** With Cc1cc(S(C)(=O)=O)c(S(C)(=O)=O)cc1C(=O)NC(=N)N [EMD87580] as the compound, how does the “cardiomyocyte differentiation of mouse P19 embryonic carcinoma cells” value ([6]; during DMSO induction) read?
**A.** Its value is “inhibit the cardiomyocyte differentiation”.

**Q.** For COC(=O)[C@]1(O)C[C@H]2O[C@]1(C)n1c3ccc(O)cc3c3c4c(c5c6ccccc6n2c5c31)C(=O)NC4=O [Indocarbazostatin C], which “NGF-induced neuronal differentiation of PC12 cells” value [3] is on record?
**A.** Its value is “inhibitors”.

**Q.** For COC(=O)[C@]1(O)C[C@H]2O[C@]1(C)n1c3ccc(O)c(N)c3c3c4c(c5c6ccccc6n2c5c31)C(=O)NC4=O [Indocarbazostatin D], which “NGF-induced neuronal differentiation of PC12 cells” value [3] is on record?
**A.** Its value is “inhibitors”.

**Q.** For COC(=O)[C@@]1(O)C[C@H]2O[C@]1(C)n1c3ccccc3c3c4c(c5c6ccccc6n2c5c31)C(=O)NC4 [K-252a], which “NGF-induced neuronal differentiation of PC12 cells” value [3] is on record?
**A.** Its value is “effective inhibitors”.

**Q.** For C[C@]12O[C@H](C[C@]1(O)C(=O)O)n1c3ccccc3c3c4c(c5c6ccccc6n2c5c31)CNC4=O [K-252b], which “NGF-induced neuronal differentiation of PC12 cells” value [3] is on record?
**A.** Its value is “effective inhibitors”.

**Q.** With Cn1c2ccc(NC(=O)c3ccccc3)cc2c(=O)n2nc(C(=O)O)cc12 [PD90780, 7-(Benzolylamino)-4,9-Dihydro-4-Methyl-9-Oxo-Pyrazolo[5,1-b]Quinazoline-2-Carboxlic Acid] as the compound, how does the “binding of NGF to p75NTR” value [7] read?
**A.** The value was “preventing its binding”.

**Q.** What about the “binding of NGF to p140 trk tyrosine kinase NGF-receptor” value [8] of the same compound?
**A.** The value was “preventing its binding”.

**Q.** And the “NGF-induced neuronal differentiation of PC12 cells” value [3]?
**A.** The value was “abolishes”.

**Q.** Which results are given for COc1cccc(-c2cc(=O)c3ccccc3o2)c1N [PD98059, 2″-Amino-3″-Methoxyflavone]?
**A.** adipocyte formation from ES cells [9]: prevents adipocyte formation; expression of adipogenic markers in ES cells [9]: prevented; adipocyte formation from ES cells ([9]; listed as PD68059): prevented; differentiation of ES cells into neuron or cardiomyocytes [10]: no effect; concentration at which reported as inhibitor of human embryonic stem cell cardiomyocyte differentiation [11]: 5 to 25 µM; NGF-induced neurite formation in PC12 cells [3]: completely blocks; cell viability of PC12 cells [3]: without affecting cell viability

**Q.** With Cn1cc(C2=C(c3ccc(Cl)cc3Cl)C(=O)NC2=O)c2ccccc21 [SB216763] as the compound, how does the “concentration at which reported as inhibitor of human embryonic stem cell cardiomyocyte differentiation” value [11] read?
**A.** The value was 10 to 25 µM.

**Q.** Which “effect on the activities of JNKs” value [12] does the source give for C[S+]([O-])c1ccc(-c2nc(-c3ccc(F)cc3)c(-c3ccncc3)[nH]2)cc1 (centres unmarked) [SB 203580, 4-(4″-fluorophenyl)-2-(4″-methylsulfinylphenyl)-5-(4″-pyridyl) imidazole] here?
**A.** Its value is “no significant effect”.

**Q.** And the “number of cardiomyocytes from human embryonic stem cells” value ([11]; 15 μM)?
**A.** Its value is “dramatically reduces the number of cardiomyocytes”.

**Q.** What about the “cardiomyocyte differentiation of human embryonic stem cells” value ([11]; 25 μM) of the same compound?
**A.** Its value is “completely blocked”.

**Q.** What about the “generation of cardiomyocytes from human embryonic stem cells” value ([11]; 1-10 μM) of the same compound?
**A.** The value was “enhances the generation of cardiomyocytes”.

**Q.** What about the “P19 cell differentiation into cardiomyocytes” value ([6]; 10 μM, cardiac-actin by immuno-histochemistry, cardiac-actin and atrial natriuretic peptide by RT-PCR) of the same compound?
**A.** Its value is “prevent mouse P19 cell differentiation into cardiomycocytes”.

**Q.** And the “effect on the activities of ERKs” value [13]?
**A.** Its value is “no significant effect”.

**Q.** With CC(C)(C)NC(=O)[C@@H]1CN(Cc2cccnc2)CCN1C[C@@H](O)C[C@@H](Cc1ccccc1)C(=O)N[C@H]1c2ccccc2C[C@H]1O [indinavir] as the compound, how does the “adipocyte differentiation, by cell model” value [14] read?
**A.** Its value is “inhibited the differentiation of only 3T3-L1 and 3T3-F442A cells”.

**Q.** With Cc1cccc(C)c1OCC(=O)N[C@@H](Cc1ccccc1)[C@@H](O)C[C@H](Cc1ccccc1)NC(=O)[C@H](C(C)C)N1CCCNC1=O [lopinavir] as the compound, how does the “adipocyte differentiation, by cell model” value [14] read?
**A.** The value was “inhibited adipocyte differentiation in all cells tested”.

**Q.** With Cc1c(O)cccc1C(=O)N[C@@H](CSc1ccccc1)[C@H](O)CN1C[C@H]2CCCC[C@H]2C[C@H]1C(=O)NC(C)(C)C [nelfinavir] as the compound, how does the “adipocyte differentiation, by cell model” value [14] read?
**A.** The value was “inhibited adipocyte differentiation in all cells tested”.

**Q.** And the “adipocyte differentiation of mesenchymal stem cells” value [15]?
**A.** Its value is “reduced the adipocyte differentiation”.

**Q.** With CC(C)c1nc(CN(C)C(=O)N[C@H](C(=O)N[C@@H](Cc2ccccc2)C[C@H](O)[C@H](Cc2ccccc2)NC(=O)OCc2cncs2)C(C)C)cs1 [ritonavir] as the compound, how does the “adipocyte differentiation, by cell model” value [14] read?
**A.** The value was “inhibited the differentiation of only 3T3-L1 and 3T3-F442A cells”.

**Q.** And the “adipocyte differentiation of mesenchymal stem cells” value [15]?
**A.** The value was “reduced the adipocyte differentiation”.

**Q.** For CC(C)(C)NC(=O)[C@@H]1C[C@@H]2CCCC[C@@H]2CN1C[C@@H](O)[C@H](Cc1ccccc1)NC(=O)[C@H](CC(N)=O)NC(=O)c1ccc2ccccc2n1 [saquinavir], which “adipocyte differentiation, by cell model” value [14] is on record?
**A.** Its value is “inhibited the differentiation of only 3T3-L1 and 3T3-F442A cells”.

**Q.** And the “adipocyte differentiation of mesenchymal stem cells” value [15]?
**A.** The value was “reduced the adipocyte differentiation”.
